Assay results taken from US20250230154A1, “COMPOUND HAVING SHP2 PROTEIN DEGRADING ACTIVITY, AND MEDICAL USES THEREOF” (UBIX THERAPEUTICS, INC., priority 2021, published 2025).

Legend:
[1] = molecular target: T1, SHP2 protein (Homo sapiens, UniProt Q06124); experiment: Measurement of SHP2 protein degradation in KYSE-520 cells (western blotting); assay type: cell-based; design: endogenous in cells; settings: 24 hours
T1 sequence (Q06124 1-593): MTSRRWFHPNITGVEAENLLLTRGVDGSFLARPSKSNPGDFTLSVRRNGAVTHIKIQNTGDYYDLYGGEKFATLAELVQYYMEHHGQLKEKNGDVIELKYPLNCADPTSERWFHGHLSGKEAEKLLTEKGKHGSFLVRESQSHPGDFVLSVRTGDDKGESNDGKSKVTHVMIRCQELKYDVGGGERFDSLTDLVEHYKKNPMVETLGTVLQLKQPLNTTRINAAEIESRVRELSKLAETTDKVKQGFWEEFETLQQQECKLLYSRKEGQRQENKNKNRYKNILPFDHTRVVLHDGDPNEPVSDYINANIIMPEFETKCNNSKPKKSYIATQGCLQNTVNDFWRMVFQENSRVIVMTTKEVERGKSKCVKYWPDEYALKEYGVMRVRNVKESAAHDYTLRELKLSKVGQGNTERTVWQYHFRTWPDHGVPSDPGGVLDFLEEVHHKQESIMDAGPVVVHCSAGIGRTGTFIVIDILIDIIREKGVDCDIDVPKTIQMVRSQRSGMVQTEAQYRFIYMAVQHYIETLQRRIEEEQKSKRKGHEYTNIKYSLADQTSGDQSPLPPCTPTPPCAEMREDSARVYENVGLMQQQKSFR
Method: Experimental Example 1: Measurement of SHP2 Protein Degradation in KYSE-520 Cells
KYSE-520 cells were treated with the synthesized Example compound, and the amount of SHP2 protein present in the cells was measured using western blotting detection. The protocol of the experiment conducted using KYSE-520 cells was as follows:
[Culture] KYSE-520 cells resuspended in RPMI1640 MEDIUM (Hyclone, SH30027.01) containing 5% FBS (Hyclone, SV30207.02) and 1% Penicillin-streptomycin (Welgene, LS 202-02) were seeded at a density of 2.5×10^5/well in a 6-well plate in an amount of 2 ml each and incubated for 2 days.
[Compound treatment] […] After 24 hours, cells were harvested. For the negative control group, DMSO diluted 1/10 to the media (3 mL DMSO+27 mL media) was added.
[Cell Lysis and Protein Quantification] Lysis buffer was prepared as follows: […] of RIPA buffer (Biosesang, RC2038-050-00)+0.5 mM PMSF (SIGMA, P7626)+1× Protease/Phosphatase Inhibitor (Cell signaling, 5872S) per well was added and placed on ice for 30 minutes (vortexing at 0 and 30 minutes, respectively). After sonication process (10 seconds pulse, 30 seconds rest, 5 cycles, 70% amplification), centrifugation (15000 g, 15 min, 4° C.) was performed, and then only the supernatant was taken and transferred to a new microtube. The sample was diluted ¼ with RIPA buffer in a 96-well plate, and mixed with A:B=50:1 of the BCA Protein Assay Kit (iNtRON, 21071). […] each of the mixture was left at 37° C. for 30 minutes, and cooled for 10 minutes. Then, absorbance was measured at 562 nm with the SYNERGY H1 microplate reader from BioTek. After making a sample by quantifying the protein with the measured value, boiling was performed at 70° C. for 10 minutes. At this time, the sample buffer used was a mixture of NuPAGE or Bolt 4× sample buffer (Invitrogen) and each 10× sample reducing agent according to the gel to be used, and RIPA buffer was used for protein dilution.
[Western blotting detection method] The same amount of sample was loaded on NuPAGE or Bolt Bis-tris 4-12% gradient gel and run (200 V, 35 minutes). It was transferred to 0.2 mm NC membrane with Trans-blot Turbo (BIO-RAD) (1.3 A constant, 25 V limit, 15 minutes). Blocking was performed at room temperature for 1 hour with Skim milk or Intercept Blocking Buffer (LI-COR, 927-60001):0.1% TBST=1:1. Anti SHPTP2 Mouse (1:500 in 5% Skim milk/TBST, size: 70 kDa, Santacruz sc-7384) was incubated overnight at 4° C., and Anti GAPDH Rabbit (1:2,000 in 5% BSA/0.2% TBST, size: 37 kDa, CST #2118) was incubated at room temperature for 1 hour 30 minutes or 3 hours. It was washed 3 times for 5 minutes each with 0.2% TBST washing buffer. Secondary antibody Anti-Rabbit IgG (1:5,000 in 5% Skim milk/0.2% TBST, CST), and IRDye® 680RD Goat anti-Rabbit IgG Secondary Antibody (1:10,000 in 5% BSA/0.2% TBST, LI-COR 926-68071) were incubated for 45 minutes on a rocker at room temperature. It was washed 5 times for 5 minutes each with 0.2% TBST washing buffer and detected with LI-COR's Odyssey. At this time, SHPTP2 was detected using SuperSignal West Pico PLUS Chemiluminescent Substrate, and house-keeping genes were also detected.
In the results of Table 4 below, Compounds 1-7, 13-19, and 21-26 are results in KYSE-520 cells, and the others are results in MV-4-11 cells.

[2] = molecular target: T1, SHP2 protein; experiment: Measurement of SHP2 protein degradation in MV-4-11 cells (western blotting); assay type: cell-based; design: endogenous in cells; host or cells: MV-4-11; settings: MV-4-11 cells, 24 hours
Procedure, shortened: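 SHP2 protein levels were assessed by western blotting in MV-4-11 cells after a 24 hour compound treatment. Lysates were sonicated, centrifuged, normalized by BCA assay at 562 nm, run on Bis-tris 4-12% gels, transferred to NC membrane, probed with anti-SHPTP2 (70 kDa) and anti-GAPDH (37 kDa) antibodies, and detected on LI-COR Odyssey.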

Row | SMILES | SHP2 degradation (%) 10 nM [1] | SHP2 degradation (%) 100 nM [1] | SHP2 degradation (%) 1000 nM [1] | SHP2 degradation (%) 10 nM [2] | SHP2 degradation (%) 100 nM [2] | SHP2 degradation (%) 1000 nM [2]
1 | Cc1ncsc1-c1ccc(CNC(=O)[C@@H]2C[C@@H](O)CN2C(=O)[C@@H](NC(=O)C2(F)CC2)C(C)(C)C)c(OCCCN2CCC(C(=O)Nc3cccc(Sc4cnc(N5CCC(C)(CN)CC5)cn4)c3Cl)CC2)c1 [Example 1, N-(3-((5-(4-(aminomethyl)-4-methylpiperidin-1-yl)pyrazin-2-yl)thio)-2-chlorophenyl)-1-(3-(2-(((2S,4R)-1-((S)-2-(1-fluorocyclopropane-1-carboxamido)-3,3-dimethylbutanoyl)-4-hydroxypyrrolidine-2-carboxamido)methyl)-5-(4-methylthiazol-5-yl)phenoxy)propyl)piperidine-4-carboxamide] | 28.9% | 64.5% | 74.5% |  |  | 
2 | Cc1ncsc1-c1ccc(CNC(=O)[C@@H]2C[C@@H](O)CN2C(=O)[C@@H](NC(=O)C2(F)CC2)C(C)(C)C)c(OCCN2CCC(CC(=O)Nc3cccc(Sc4cnc(N5CCC(C)(CN)CC5)cn4)c3Cl)CC2)c1 [Example 5, (2S,4R)—N-(2-(2-(4-(2-((3-((5-(4-(aminomethyl)-4-methylpiperidin-1-yl)pyrazin-2-yl)thio)-2-chlorophenyl)amino)-2-oxoethyl)piperidin-1-yl)ethoxy)-4-(4-methylthiazol-5-yl)benzyl)-1-((S)-2-(1-fluorocyclopropane-1-carboxamido)-3,3-dimethylbutanoyl)-4-hydroxypyrrolidine-2-carboxamide] | 3.4% | 56.7% | 90.6% |  |  | 
3 | Cc1ncsc1-c1ccc(CNC(=O)[C@@H]2C[C@@H](O)CN2C(=O)[C@@H](NC(=O)C2(F)CC2)C(C)(C)C)c(OCCCN2CCC(CC(=O)Nc3cccc(Sc4cnc(N5CCC(C)(CN)CC5)cn4)c3Cl)CC2)c1 [Example 6, (2S,4R)—N-(2-(3-(4-(2-((3-((5-(4-(aminomethyl)-4-methylpiperidin-1-yl)pyrazin-2-yl)thio)-2-chlorophenyl)amino)-2-oxoethyl)piperidin-1-yl)propoxy)-4-(4-methylthiazol-5-yl)benzyl)-1-((S)-2-(1-fluorocyclopropane-1-carboxamido)-3,3-dimethylbutanoyl)-4-hydroxypyrrolidine-2-carboxamide] | 19.5% | 82.4% | 95.0% |  |  | 
4 | Cc1ncsc1-c1ccc(CNC(=O)[C@@H]2C[C@@H](O)CN2C(=O)[C@@H](NC(=O)C2(F)CC2)C(C)(C)C)c(OCCNC(=O)c2cnc(N3CCC(CCCC(=O)Nc4cccc(Sc5cnc(N6CCC(C)(CN)CC6)cn5)c4Cl)CC3)nc2)c1 [Example 89, 2-(4-(4-((3-((5-(4-(aminomethyl)-4-methylpiperidin-1-yl)pyrazin-2-yl)thio)-2-chlorophenyl)amino)-4-oxobutyl)piperidin-1-yl)-N-(2-(2-(((2S,4R)-1-((S)-2-(1-fluorocyclopropane-1-carboxamido)-3,3-dimethylbutanoyl)-4-hydroxypyrrolidine-2-carboxamido)methyl)-5-(4-methylthiazol-5-yl)phenoxy)ethyl)pyrimidine-5-carboxamide] |  |  |  | 4% | 95% | 97%
5 | Cc1ncsc1-c1ccc(CNC(=O)[C@@H]2C[C@@H](O)CN2C(=O)[C@@H](NC(=O)C2(F)CC2)C(C)(C)C)c(OCCOc2cnc(N3CCC(CCCC(=O)Nc4cccc(Sc5cnc(N6CCC(C)(CN)CC6)cn5)c4Cl)CC3)nc2)c1 [Example 90, (2S,4R)—N-(2-(2-((2-(4-(4-((3-((5-(4-(aminomethyl)-4-methylpiperidin-1-yl)pyrazin-2-yl)thio)-2-chlorophenyl)amino)-4-oxobutyl)piperidin-1-yl)pyrimidin-5-yl)oxy)ethoxy)-4-(4-methylthiazol-5-yl)benzyl)-1-((S)-2-(1-fluorocyclopropane-1-carboxamido)-3,3-dimethylbutanoyl)-4-hydroxypyrrolidine-2-carboxamide] |  |  |  | 6% | 97% | 98%

Second part, the molecule after the results:

Row | SHP2 degradation (%) 10 nM [1] | SHP2 degradation (%) 100 nM [1] | SHP2 degradation (%) 1000 nM [1] | SHP2 degradation (%) 10 nM [2] | SHP2 degradation (%) 100 nM [2] | SHP2 degradation (%) 1000 nM [2] | SMILES
6 | 23.3% | 81.8% | 94.3% |  |  |  | Cc1ncsc1-c1ccc(CNC(=O)[C@@H]2C[C@@H](O)CN2C(=O)[C@@H](NC(=O)C2(F)CC2)C(C)(C)C)c(OCCCCN2CCC(C(=O)Nc3cccc(Sc4cnc(N5CCC(C)(CN)CC5)cn4)c3Cl)CC2)c1 [Example 2, N-(3-((5-(4-(aminomethyl)-4-methylpiperidin-1-yl)pyrazin-2-yl)thio)-2-chlorophenyl)-1-(4-(2-(((2S,4R)-1-((S)-2-(1-fluorocyclopropane-1-carboxamido)-3,3-dimethylbutanoyl)-4-hydroxypyrrolidine-2-carboxamido)methyl)-5-(4-methylthiazol-5-yl)phenoxy)butyl)piperidine-4-carboxamide]
7 | −15.6% | 48.8% | 84.0% |  |  |  | Cc1ncsc1-c1ccc(CNC(=O)[C@@H]2C[C@@H](O)CN2C(=O)[C@@H](NC(=O)C2(F)CC2)C(C)(C)C)c(OCCCCCCN2CCC(C(=O)Nc3cccc(Sc4cnc(N5CCC(C)(CN)CC5)cn4)c3Cl)CC2)c1 [Example 3, N-(3-((5-(4-(aminomethyl)-4-methylpiperidin-1-yl)pyrazin-2-yl)thio)-2-chlorophenyl)-1-(6-(2-(((2S,4R)-1-((S)-2-(1-fluorocyclopropane-1-carboxamido)-3,3-dimethylbutanoyl)-4-hydroxypyrrolidine-2-carboxamido)methyl)-5-(4-methylthiazol-5-yl)phenoxy)hexyl)piperidine-4-carboxamide]
8 | 4.1% | 60.7% | 90.7% |  |  |  | Cc1ncsc1-c1ccc(CNC(=O)[C@@H]2C[C@@H](O)CN2C(=O)[C@@H](NC(=O)C2(F)CC2)C(C)(C)C)c(OCCCCCCCCN2CCC(C(=O)Nc3cccc(Sc4cnc(N5CCC(C)(CN)CC5)cn4)c3Cl)CC2)c1 [Example 4, N-(3-((5-(4-(aminomethyl)-4-methylpiperidin-1-yl)pyrazin-2-yl)thio)-2-chlorophenyl)-1-(8-(2-(((2S,4R)-1-((S)-2-(1-fluorocyclopropane-1-carboxamido)-3,3-dimethylbutanoyl)-4-hydroxypyrrolidine-2-carboxamido)methyl)-5-(4-methylthiazol-5-yl)phenoxy)octyl)piperidine-4-carboxamide]
